The OPERA property sets (Mansouri et al. 2018)

| SMILES | logP |
| --- | --- |
| ClC1=C(Cl)[C@]2(Cl)[C@@H]3[C@@H]4C[C@@H]([C@H]5O[C@@H]45)[C@@H]3[C@@]1(Cl)C2(Cl)Cl (single isomer, unassigned) | 5.4 |
| Clc1cccc(Cl)c1-c1c(Cl)cccc1Cl | 5.94 |
| Clc1c(Cl)c(Cl)c(Cl)c(Cl)c1Cl | 5.73 |
| Clc1ccc(-c2ccc(Cl)c(Cl)c2)cc1Cl | 6.63 |
| Clc1cc(Cl)c(Cl)c(-c2c(Cl)c(Cl)cc(Cl)c2Cl)c1Cl | 7.73 |
| CCOP(=S)(OCC)Oc1cc(Cl)c(Br)cc1Cl | 6.15 |
| CCCCc1ccccc1 | 4.38 |
| COP(=S)(OC)Oc1cc(Cl)c(I)cc1Cl | 5.51 |
| ClC1=C(Cl)[C@]2(Cl)[C@H]3[C@H]([C@@H]4C=C[C@H]3C4)[C@@]1(Cl)C2(Cl)Cl (racemic) | 6.5 |
| CCc1ccc2c(c1)C(=O)c1ccccc1C2=O | 4.37 |
| Clc1c(Cl)c(Cl)c(-c2ccccc2)c(Cl)c1Cl | 6.75 |
| CCCCC(CC)COC(=O)c1ccccc1C(=O)OCC(CC)CCCC (stereo not drawn) | 7.6 |
| Clc1cc(-c2cc(Cl)c(Cl)c(Cl)c2)cc(Cl)c1Cl | 7.41 |
